{"source": "patent US8673908B2", "about": "“Kynurenine production inhibitor” (Kyowa Hakko Kirin Co., Ltd., priority 2008, dated 2014)", "tested_on": "kynurenine production in IFN-γ-treated KATO-III cells", "test": "Inhibitory activity on kynurenine production (Test Example 1)", "format": "cell-based", "conditions": "Homo sapiens, IFN-γ treatment, culture for 96 hours, read-out: IC50 value, inhibition of kynurenine production", "procedure,_shortened": "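KATO-III human gastric cancer cells (2,000/well, RPMI 1640 + 10% FBS) were cultured with compound and IFN-γ (31.25 ng/mL in the cell suspension), DMSO ≤0.1%, for 96 h at 37 °C, 5% CO2. Kynurenine was read at A480 after TCA at 65 °C and p-dimethylaminobenzaldehyde. Inhibition used IFN-γ-treated and untreated DMSO wells as references.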"}
{"smiles": "O=S(=O)(Nc1nc2ccccc2nc1OC(c1ccncc1)C(F)(F)F)c1ccccc1Cl", "note": "(stereo not drawn) [Compound 49, 2-chloro-N-{3-[2,2,2-trifluoro-1-(pyridin-4-yl)ethoxy]quinoxalin-2-yl}benzenesulfonamide]", "values": [{"measurement": "IC50", "value": "< 1000", "unit": "nM"}]}
{"smiles": "O=S(=O)(Nc1cc2ccccc2nc1OC(c1cccnc1)C(F)(F)F)c1ccccc1Cl", "note": "(stereo not drawn) [Compound 360, 2-chloro-N-{2-[2,2,2-trifluoro-1-(pyridin-3-yl)ethoxy]-quinolin-3-yl}benzenesulfonamide]", "values": [{"measurement": "IC50", "value": "1000 to 10000", "unit": "nM"}]}
{"smiles": "CCCS(=O)(=O)Nc1nc2ccccc2nc1OC(c1ccc(C)nc1)C(F)(F)F", "note": "(stereo not drawn) [Compound 192, N-{3-[2,2,2-trifluoro-1-(6-methylpyridin-3-yl)ethoxy]-quinoxalin-2-yl}propane-1-sulfonamide]", "values": [{"measurement": "IC50", "value": "< 1000", "unit": "nM"}]}
{"smiles": "CCCCS(=O)(=O)Nc1nc2ccccc2nc1OC(c1cccnc1)C(F)(F)F", "note": "(stereo not drawn) [Compound 191, N-{3-[2,2,2-trifluoro-1-(pyridin-3-yl)ethoxy]quinoxalin-2-yl}butane-1-sulfonamide]", "values": [{"measurement": "IC50", "value": "< 1000", "unit": "nM"}]}
{"smiles": "CCCS(=O)(=O)Nc1nc2ccccc2nc1OC(c1cc2ccccc2n1C)C(F)(F)F", "note": "(stereo not drawn) [Compound 135, N-{3-[2,2,2-trifluoro-1-(1-methyl-1H-indol-2-yl)ethoxy]-quinoxalin-2-yl}propane-1-sulfonamide]", "values": [{"measurement": "IC50", "value": "< 1000", "unit": "nM"}]}
{"smiles": "N#Cc1cccc(C(Oc2nc3ccccc3nc2NS(=O)(=O)c2ccccc2Cl)C(F)(F)F)c1", "note": "(stereo not drawn) [Compound 82, 2-chloro-N-{3-[2,2,2-trifluoro-1-(3-cyanophenyl)ethoxy]-quinoxalin-2-yl}benzenesulfonamide]", "values": [{"measurement": "IC50", "value": "< 1000", "unit": "nM"}]}
{"smiles": "Cc1ncc(C(Oc2nc3ccccc3nc2NS(=O)(=O)NC2CC2)C(F)(F)F)s1", "note": "(stereo not drawn) [Compound 324, N-cyclopropyl-N′-{3-[2,2,2-trifluoro-1-(2-methylthiazol-5-yl)ethoxy]quinoxalin-2-yl}sulfuric diamide]", "values": [{"measurement": "IC50", "value": "< 1000", "unit": "nM"}]}
{"smiles": "Cc1noc(C)c1S(=O)(=O)Nc1nc2ccccc2nc1OC(c1cc2ccccc2n1C)C(F)(F)F", "note": "(stereo not drawn) [Compound 128, 3,5-dimethyl-N-{3-[2,2,2-trifluoro-1-(1-methyl-1H-indol-2-yl)ethoxy]quinoxalin-2-yl}isoxazole-4-sulfonamide]", "values": [{"measurement": "IC50", "value": "< 1000", "unit": "nM"}]}
{"smiles": "CCCS(=O)(=O)Nc1nc2ccccc2nc1OC(c1cnc(Cl)s1)C(F)(F)F", "note": "(stereo not drawn) [Compound 196, N-{3-[1-(2-chlorothiazol-5-yl)-2,2,2-trifluoroethoxy]-quinoxalin-2-yl}propane-1-sulfonamide]", "values": [{"measurement": "IC50", "value": "< 1000", "unit": "nM"}]}
{"smiles": "CC(C)(F)C(Oc1nc2ccccc2nc1NS(=O)(=O)c1cccc(Cl)c1Cl)c1cccnc1", "note": "(stereo not drawn) [Compound 39, 2,3-dichloro-N-{3-[2-fluoro-2-methyl-1-(pyridin-3-yl)-propoxy]quinoxalin-2-yl}benzenesulfonamide]", "values": [{"measurement": "IC50", "value": "< 1000", "unit": "nM"}]}
{"smiles": "CCCS(=O)(=O)Nc1cc2ccccc2nc1OC(c1cccnc1)C(F)(F)F", "note": "(stereo not drawn) [Compound 358, N-{2-[2,2,2-trifluoro-1-(pyridin-3-yl)ethoxy]quinolin-3-yl}propane-1-sulfonamide]", "values": [{"measurement": "IC50", "value": "1000 to 10000", "unit": "nM"}]}
{"smiles": "O=S(=O)(Nc1nc2cc3ccccc3cc2nc1OC(c1cccnc1)C(F)(F)F)c1ccccc1Cl", "note": "(stereo not drawn) [Compound 263, 2-chloro-N-{3-[2,2,2-trifluoro-1-(pyridin-3-yl)ethoxy]-benzo[g]quinoxalin-2-yl}benzenesulfonamide]", "values": [{"measurement": "IC50", "value": "< 1000", "unit": "nM"}]}
{"smiles": "CCCS(=O)(=O)Nc1nc2ccccc2nc1OC(c1cccnc1)C(C)C", "note": "(stereo not drawn) [Compound 210, N-{3-[2-methyl-1-(pyridin-3-yl)propoxy]quinoxalin-2-yl}-propane-1-sulfonamide]", "values": [{"measurement": "IC50", "value": "< 1000", "unit": "nM"}]}
{"smiles": "COC(=O)C(Oc1nc2ccccc2nc1NS(=O)(=O)c1cccc(Cl)c1Cl)c1ccc(C(F)(F)F)cc1", "note": "(stereo not drawn) [Compound 43, 2,3-dichloro-N-{3-{methoxycarbonyl[4-(trifluoromethyl)-phenyl]methoxy}quinoxalin-2-yl}benzenesulfonamide]", "values": [{"measurement": "IC50", "value": "< 1000", "unit": "nM"}]}
{"smiles": "Cc1ccc(C(Oc2nc3ccccc3nc2NS(=O)(=O)c2c(C)nn(C)c2Cl)C(F)(F)F)cn1", "note": "(stereo not drawn) [Compound 69, 5-chloro-1,3-dimethyl-N-{3-[2,2,2-trifluoro-1-(6-methylpyridin-3-yl)ethoxy]quinoxalin-2-yl}-1H-pyrazole-4-sulfonamide]", "values": [{"measurement": "IC50", "value": "< 1000", "unit": "nM"}]}
{"smiles": "CCCS(=O)(=O)Nc1nc2ccccc2nc1OC(C(F)(F)F)C(F)(F)F", "note": "[Compound 322, N-{3-[(1,1,1,3,3,3-hexafluoropropan-2-yl)oxy]quinoxalin-2-yl}propane-1-sulfonamide]", "values": [{"measurement": "IC50", "value": "< 1000", "unit": "nM"}]}
{"smiles": "O=S(=O)(Nc1nc2ccccc2nc1OC(c1ccc(C2CC2)nc1)C(F)(F)F)c1ccccc1Cl", "note": "(stereo not drawn) [Compound 89, 2-chloro-N-{3-[2,2,2-trifluoro-1-(6-cyclopropylpyridin-3-yl)ethoxy]quinoxalin-2-yl}benzenesulfonamide]", "values": [{"measurement": "IC50", "value": "< 1000", "unit": "nM"}]}
{"smiles": "Cc1nc(C)c(C(Oc2nc3ccccc3nc2NS(=O)(=O)c2ccccc2Cl)C(F)(F)F)s1", "note": "(stereo not drawn) [Compound 106, 2-chloro-N-{3-[2,2,2-trifluoro-1-(2,4-dimethylthiazol-5-yl)ethoxy]quinoxalin-2-yl}benzenesulfonamide]", "values": [{"measurement": "IC50", "value": "< 1000", "unit": "nM"}]}
{"smiles": "Cc1noc(C)c1S(=O)(=O)Nc1nc2ccccc2nc1OC(c1cncn1C)C(F)(F)F", "note": "(stereo not drawn) [Compound 171, 3,5-dimethyl-N-{3-[2,2,2-trifluoro-1-(1-methyl-1H-imidazol-5-yl)ethoxy]quinoxalin-2-yl}isoxazole-4-sulfonamide]", "values": [{"measurement": "IC50", "value": "< 1000", "unit": "nM"}]}
{"smiles": "CCCNS(=O)(=O)Nc1nc2ccccc2nc1OC(c1ccc(Cl)nc1)C(F)(F)F", "note": "(stereo not drawn) [Compound 283, N-{3-[1-(6-chloropyridin-3-yl)-2,2,2-trifluoroethoxy]-quinoxalin-2-yl}-N′-propyl-sulfuric diamide]", "values": [{"measurement": "IC50", "value": "< 1000", "unit": "nM"}]}
{"smiles": "CCCS(=O)(=O)Nc1nc2ccccc2nc1OC(c1cnc(C)s1)C(F)(F)F", "note": "(stereo not drawn) [Compound 315, N-{3-[2,2,2-trifluoro-1-(2-methylthiazol-5-yl)ethoxy]-quinoxalin-2-yl}propane-1-sulfonamide]", "values": [{"measurement": "IC50", "value": "< 1000", "unit": "nM"}]}
{"smiles": "Cc1ccc(C(Oc2nc3ccccc3nc2NS(=O)(=O)NC2CC2)C(F)(F)F)cn1", "note": "(stereo not drawn) [Compound 285, N-{3-[2,2,2-trifluoro-1-(6-methylpyridin-3-yl)ethoxy]-quinoxalin-2-yl}-N′-cyclopropyl-sulfuric diamide]", "values": [{"measurement": "IC50", "value": "< 1000", "unit": "nM"}]}
{"smiles": "CCCS(=O)(=O)Nc1nc2ccccc2nc1O[C@H](c1ccc(Cl)nc1)C(F)(F)F", "note": "[Compound 348, (R)—N-{3-[2,2,2-trifluoro-1-(6-chloropyridin-3-yl)ethoxy]-quinoxalin-2-yl}propane-1-sulfonamide]", "values": [{"measurement": "IC50", "value": "< 1000", "unit": "nM"}]}
{"smiles": "O=S(=O)(Nc1nc2ccccc2nc1OCc1ccc2ccccc2c1)c1cc(Cl)cc(Cl)c1", "note": "[Compound 15, 3,5-dichloro-N-{3-[(2-naphthyl)methoxy]quinoxalin-2-yl}-benzenesulfonamide]", "values": [{"measurement": "IC50", "value": "< 1000", "unit": "nM"}]}
{"smiles": "CC(C)CS(=O)(=O)Nc1nc2ccccc2nc1OC(c1cccnc1)C(F)(F)F", "note": "(stereo not drawn) [Compound 180, 2-methyl-N-{3-[2,2,2-trifluoro-1-(pyridin-3-yl)ethoxy]-quinoxalin-2-yl}propane-1-sulfonamide]", "values": [{"measurement": "IC50", "value": "< 1000", "unit": "nM"}]}
{"smiles": "O=S(=O)(Nc1nc2ccccc2nc1OCc1ccc2ncccc2c1)c1cccc(Cl)c1Cl", "note": "[Compound 24, 2,3-dichloro-N-{3-[(quinolin-6-yl)methoxy]quinoxalin-2-yl}-benzenesulfonamide]", "values": [{"measurement": "IC50", "value": "< 1000", "unit": "nM"}]}
{"smiles": "O=S(=O)(Nc1nc2ccccc2nc1OCc1ccc2ccccc2c1)c1cccc2ccccc12", "note": "[Compound 11, N-{3-[(2-naphthyl)methoxy]quinoxalin-2-yl}-1-naphthalenesulfonamide]", "values": [{"measurement": "IC50", "value": "< 1000", "unit": "nM"}]}
{"smiles": "CC(C)(C(Oc1nc2ccccc2nc1NS(=O)(=O)c1ccccc1Cl)c1cccnc1)S(C)(=O)=O", "note": "(stereo not drawn) [Compound 80, 2-chloro-N-{3-[2-methanesulfonyl-2-methyl-1-(pyridin-3-yl)-propoxy]quinoxalin-2-yl}benzenesulfonamide]", "values": [{"measurement": "IC50", "value": "< 1000", "unit": "nM"}]}
{"smiles": "CCCS(=O)(=O)Nc1nc2ccccc2nc1OC(c1ccc(Cl)cc1)C(F)(F)F", "note": "(stereo not drawn) [Compound 302, N-{3-[1-(4-chlorophenyl)-2,2,2-trifluoroethoxy]quinoxalin-2-yl}propane-1-sulfonamide]", "values": [{"measurement": "IC50", "value": "< 1000", "unit": "nM"}]}
{"smiles": "Cc1noc(C)c1S(=O)(=O)Nc1nc2ccccc2nc1OC(c1ccc(C#N)cc1)C(F)(F)F", "note": "(stereo not drawn) [Compound 201, N-{3-[1-(4-cyanophenyl)-2,2,2-trifluoroethoxy]quinoxalin-2-yl}-3,5-dimethylisoxazole-4-sulfonamide]", "values": [{"measurement": "IC50", "value": "< 1000", "unit": "nM"}]}
{"smiles": "Cc1nn(C)c(Cl)c1S(=O)(=O)Nc1nc2ccccc2nc1OC(c1cccnc1)C(F)(F)F", "note": "(stereo not drawn) [Compound 141, 5-chloro-1,3-dimethyl-N-{3-[2,2,2-trifluoro-1-(pyridin-3-yl)ethoxy]quinoxalin-2-yl}-1H-pyrazole-4-sulfonamide]", "values": [{"measurement": "IC50", "value": "< 1000", "unit": "nM"}]}
{"smiles": "CCCS(=O)(=O)Nc1nc2ccccc2nc1OC(c1cncn1C)C(F)(F)F", "note": "(stereo not drawn) [Compound 277, N-{3-[2,2,2-trifluoro-1-(1-methyl-1H-imidazol-5-yl)ethoxy]-quinoxalin-2-yl}propane-1-sulfonamide]", "values": [{"measurement": "IC50", "value": "1000 to 10000", "unit": "nM"}]}
{"smiles": "CCCS(=O)(=O)Nc1nc2ccccc2nc1OC(C1CCN(C(=O)OC)CC1)C(F)(F)F", "note": "(stereo not drawn) [Compound 337, N-{3-[2,2,2-trifluoro-1-(1-methoxycarbonylpiperidin-4-yl)-ethoxy]quinoxalin-2-yl}propane-1-sulfonamide]", "values": [{"measurement": "IC50", "value": "< 1000", "unit": "nM"}]}
{"smiles": "N#Cc1ccc(C(Oc2nc3ccccc3nc2NS(=O)(=O)c2ccccc2Cl)C(F)(F)F)cc1", "note": "(stereo not drawn) [Compound 42, 2-chloro-N-{3-[2,2,2-trifluoro-1-(4-cyanophenyl)ethoxy]-quinoxalin-2-yl}benzenesulfonamide]", "values": [{"measurement": "IC50", "value": "< 1000", "unit": "nM"}]}
{"smiles": "O=S(=O)(Nc1nc2ccccc2nc1OC(c1ccc(Br)nc1)C(F)(F)F)c1ccccc1Cl", "note": "(stereo not drawn) [Compound 86, 2-chloro-N-{3-[2,2,2-trifluoro-1-(6-bromopyridin-3-yl)-ethoxy]quinoxalin-2-yl}benzenesulfonamide]", "values": [{"measurement": "IC50", "value": "< 1000", "unit": "nM"}]}
{"smiles": "C=CCS(=O)(=O)Nc1nc2ccccc2nc1OC(c1cccnc1)C(F)(F)F", "note": "(stereo not drawn) [Compound 304, N-{3-[2,2,2-trifluoro-1-(pyridin-3-yl)ethoxy]quinoxalin-2-yl}-2-propene-1-sulfonamide]", "values": [{"measurement": "IC50", "value": "< 1000", "unit": "nM"}]}
